{"source": "patent US20210292306A1", "about": "“NOVEL INDOLE DERIVATIVE AND ANTI-CANCER CONPOSITION CONTAINING SAME” (KOREA RESEARCH INSTITUTE OF BIOSCIENCE AND BIOTECHNOLOGY, priority 2016, published 2021)", "key": {"K562/ADR": {"system": "K562/ADR", "experiment": "Anti-proliferative activity in cancer cells showing multiple drug resistance (MTT assay)", "type": "cell-based", "settings": "ratio of IC50 K562/ADR to IC50 K562", "description": "(§1) HeLa cells (ATCC, USA), which are a human cervical cancer cell line, were dispensed into a 96-well plate at 2×10^3 cells/well, and the cells were treated with DMSO or the indole derivatives of the present invention, and then allowed to grow for 4 days. And then, MTT (3-(4,5-Dimethylthiazol-2-yl)-2,5-diphenyltetrazolium bromide) reagent was added to the wells at 10 μl/well. After 2 hours, the absorbance was measured at “OD 450” and statistical values were obtained using the plizm6 program. The data represent mean values of the results of two repeated assays (Table 1). Specifically, K562 and MCF7 (Bio Evaluation Center, Korea Research Institute of Bioscience and Biotechnology, Korea), and K562/ADR and MCF7/ADR (Bio Evaluation Center, Korea Research Institute of Bioscience and Biotechnology, Korea), which are multiple drug-resistant cell lines of the above mentioned cell lines, respectively, were cultured on a microtiter plate at 1-3×10^3 cells/well."}, "MCF7/ADR": {"system": "MCF7/ADR", "experiment": "Anti-proliferative activity in cancer cells showing multiple drug resistance (MTT assay)", "type": "cell-based", "settings": "ratio of IC50 MCF7/ADR to IC50 MCF7", "description": "as §1"}, "[1]": {"system": "human-derived skin cancer cell line (A431)", "experiment": "Anti-cancer effect in human-derived skin cancer cell (A431) implantation nude mouse model", "type": "in vivo, BALB/C female nude mouse", "settings": "for tumor growth inhibition: day 23; for tumor weight reduction: excised A431 tumors weighed", "description": "The human cancer cell line A431 which was kept frozen in liquid nitrogen was thawed and cell culture was conducted. Cells were cultured in a CO2 incubator (Forma, USA) at 37° C. and 5% CO2 for an appropriate period of time. On the last day of culture, all cancer cells were collected and counted and the cell concentration was adjusted to 1×10^7 cells/ml using serum free media. The culture solution thus prepared was injected subcutaneously in the axillary region between the scapula and chest wall in an amount of 0.3 ml per BALB/C female nude mouse (5 weeks old, Nara Biotech) (3×10^6 cells/mouse). […] To examine the toxicity levels of the repeated intraperitoneal administration of WCI-1031 to A431 cancer cell implantation nude mice, general symptoms and weight changes of the animals were observed during the administration period. […] On day 23 after the start of the drug administration, blood was taken from the mice through ophthalmic veins 2 hours after the last administration, and the mice were sacrificed using CO2 gas. Then the mice were photographed and the tumors was isolated and weighed in a chemical balance. After taking photographs, each tumor was divided in half, and the resultant tumors were fixed to liquid nitrogen and formalin, respectively."}}, "data": [{"compound": "COc1cc2c(c(OC)c1OC)-c1ccc(OC)c(=O)cc1[C@@H](NC(C)=O)CC2", "note": "[colchicine, reference compound]", "values": [{"measurement": "Resistance factor", "setting": "K562/ADR", "result": 22.91}, {"measurement": "Resistance factor", "setting": "MCF7/ADR", "result": 34.15}, {"measurement": "tumor growth inhibition", "setting": "[1]; colchicine 0.07 mg/kg, days 0-23, p<0.05", "result": 17.6, "unit": "%"}, {"measurement": "tumor weight reduction", "setting": "[1]; colchicine 0.07 mg/kg, p<0.05", "result": 17.6, "unit": "%"}]}, {"compound": "CC[C@]1(O)C[C@@H]2CN(CCc3c([nH]c4ccccc34)[C@@](C(=O)OC)(c3cc4c(cc3OC)N(C)[C@H]3[C@@](O)(C(=O)OC)[C@H](OC(C)=O)[C@]5(CC)C=CCN6CC[C@]43[C@@H]65)C2)C1", "note": "[Vinblastine, vinblastine]", "values": [{"measurement": "Resistance factor", "setting": "K562/ADR", "result": 15.63}, {"measurement": "Resistance factor", "setting": "MCF7/ADR", "result": 18.17}]}, {"compound": "CC(=O)O[C@H]1C(=O)[C@@]2(C)[C@H]([C@H](OC(=O)c3ccccc3)[C@]3(O)C[C@H](OC(=O)[C@H](O)[C@@H](NC(=O)c4ccccc4)c4ccccc4)C(C)=C1C3(C)C)[C@]1(OC(C)=O)CO[C@@H]1C[C@@H]2O", "note": "[Taxol, taxol]", "values": [{"measurement": "Resistance factor", "setting": "K562/ADR", "result": 519.6}, {"measurement": "Resistance factor", "setting": "MCF7/ADR", "result": 438.38}]}, {"compound": "O=c1[nH]cc(F)c(=O)[nH]1", "note": "[Example 5-FU, 5-FU, reference compound]", "values": [{"measurement": "tumor growth inhibition", "setting": "[1]; 5-FU 2 mg/ml at 10 ml/kg, days 0-2, 5-9, 12-16, 19-23, p<0.01", "result": 20.7, "unit": "%"}, {"measurement": "tumor weight reduction", "setting": "[1]; 5-FU 2 mg/ml at 10 ml/kg, p<0.05", "result": 20.8, "unit": "%"}]}, {"compound": "COc1cccc2c1C(=O)c1c(O)c3c(c(O)c1C2=O)C[C@@](O)(C(=O)CO)C[C@@H]3O[C@H]1C[C@H](N)[C@H](O)[C@H](C)O1", "note": "[Doxorubicin, doxorubicin]", "values": [{"measurement": "Resistance factor", "setting": "K562/ADR", "result": 767.91}, {"measurement": "Resistance factor", "setting": "MCF7/ADR", "result": 169.57}]}]}
